Measurements published in US7572814B2, “3,5-dibenzoyl-4-phenyl-piperidine anti-cancer compounds” (Cytokinetics, Incorporated, priority 2005, dated 2009).

Key:
A549 cells = conditions: data provided by National Cancer Institute; cited from earlier work
[1] = test system: SKOV-3 human ovarian carcinoma; test: Tumor growth delay (TGD) study, established SKOV-3 tumors in athymic nude mice; assay type: in vivo; conditions: 30 mg/kg i.v. qod×5
Procedure: Certain of the chemical entities described herein were evaluated for in vivo activity against SKOV-3 human ovarian carcinoma in a tumor growth delay (TGD) study. The study utilized eight groups (n=8) of athymic nude mice bearing established (63-144 mm3) SKOV-3 tumors on Day 1, and included a vehicle-treated tumor growth control group and a reference group treated with paclitaxel (30 mg/kg i.v. qod×5). A first chemical entity was evaluated at doses of 300 or 150 mg/kg administered intraperitoneally (i.p.) once daily and at 150 mg/kg administered i.p. twice daily. Doses were administered on study days 1 to 5 and 8 to 12. Tumors were measured twice weekly during the 60-day study. Each animal was euthanized when its tumor reached the endpoint volume of 1500 mm3 or on Day 60, whichever came first, and the time to endpoint (TTE) was calculated for each mouse. Treatment outcome was determined from percent tumor growth delay (% TGD), defined as the percent increase in median TTE of treated versus control mice, with differences in TTE values deemed significant at P □0.05 using logrank analysis. The results presented were calculated based on data acquired through day 33 of the study. The median TTE of the untreated control group was 20.8 days.
A second chemical entity was similarly evaluated at 500 mg/kg administered i.p. once daily.

SMILES | GI50 (A549 cells) | percent tumor growth delay (% TGD) ([1]; data through day 33, statistically significant) | tumor growth delay (T-C) ([1]; maximum possible in this study, untreated control median TTE 20.8 days)
O=c1[nH]cc(F)c(=O)[nH]1 [5-fluorouracil] | 1000 nM |  | 
COc1cccc2c1C(=O)c1c(O)c3c(c(O)c1C2=O)C[C@@](O)(C(=O)CO)C[C@@H]3O[C@H]1C[C@H](N)[C@H](O)[C@H](C)O1 [doxorubicin] | 63 nM |  | 
NC(=O)NO [hydroxyurea] | 500000 nM |  | 
CC(=O)O[C@H]1C(=O)[C@@]2(C)[C@H]([C@H](OC(=O)c3ccccc3)[C@]3(O)C[C@H](OC(=O)[C@H](O)[C@@H](NC(=O)c4ccccc4)c4ccccc4)C(C)=C1C3(C)C)[C@]1(OC(C)=O)CO[C@@H]1C[C@@H]2O [paclitaxel] | 4 nM | 58% | 12.2 days
